Values belong to the compound of their own block, whether it stands above or below them.
Biological target: T1, human RORγ-LBD (Homo sapiens, UniProt P51449)
T1 construct: made in house; host or cells: E. coli (BL-21)
T1 sequence (P51449 262-518): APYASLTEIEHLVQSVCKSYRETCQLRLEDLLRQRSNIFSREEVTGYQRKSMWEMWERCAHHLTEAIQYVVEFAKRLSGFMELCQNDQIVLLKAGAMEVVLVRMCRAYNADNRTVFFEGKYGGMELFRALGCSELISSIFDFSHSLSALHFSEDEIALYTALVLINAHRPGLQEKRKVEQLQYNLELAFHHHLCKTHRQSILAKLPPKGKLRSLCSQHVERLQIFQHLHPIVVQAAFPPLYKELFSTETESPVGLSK
Assay: ROR gamma coactivator peptide recruitment Alphascreen assay (RORγ-LBD binding to GRIP1 coactivator peptide)
Type: biochemical
Settings: 5 nM human RORγ-LBD, 30 nM 7-β-hydroxycholesterol, 50 nM biotinylated GRIP1 coactivator peptide, overnight incubation at room temperature; read-out: result (pIC50, RORγ coactivator peptide recruitment Alphascreen assay) (converted)
Outline: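 His/Flag-tagged human RORγ-LBD (aa 262-518, E. coli-expressed, 5 nM) with agonist 7-β-hydroxycholesterol (30 nM) and biotinylated GRIP1 LXXLL peptide (50 nM) in HEPES pH 7.4 buffer, 2.5% DMSO. Compound 1-in-2 dilutions; Alphascreen bead signal read after overnight incubation at room temperature; pIC50 calculated.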

Structure (SMILES): C[C@]1(C(=O)O)CC[C@H](n2ncc(C(=O)N(CC(=O)c3c(Cl)cccc3Cl)[C@H]3CCOC4(CCC4)C3)c2C(F)(F)F)CC1 [Example 653, trans-4-(4-((2-(2,6-dichlorophenyl)-2-oxoethyl)((8S)-5-oxaspiro[3.5]non-8-yl)carbamoyl)-5-(trifluoromethyl)-1H-pyrazol-1-yl)-1-methylcyclohexanecarboxylic acid]
IC50: 70.8 nM

Structure (SMILES): CC1(C)[C@@H]2C[C@H](N(CC(=O)c3c(Cl)cccc3Cl)C(=O)c3cnn([C@H]4C[C@@H](CC(=O)O)C4)c3C(F)(F)F)C[C@@H]21 [Example 846, (cis-3-(4-((2-(2,6-dichlorophenyl)-2-oxoethyl)((1R,3r,5S)-6,6-dimethylbicyclo[3.1.0]hex-3-yl)carbamoyl)-5-(trifluoromethyl)-1H-pyrazol-1-yl)cyclobutyl)acetic acid]
IC50: 2.4 nM

Structure (SMILES): CC(C)(C)CN(CC(=O)c1c(Cl)cncc1Cl)C(=O)c1cnn([C@H]2C[C@]3(C[C@H](C(=O)O)C3)C2)c1C(F)(F)F (stereo partly shown) [Example 771, (4r)-6-(4-((2-(3,5-dichloro-4-pyridinyl)-2-oxoethyl)(2,2-dimethylpropyl)carbamoyl)-5-(trifluoromethyl)-1H-pyrazol-1-yl)spiro[3.3]heptane-2-carboxylic acid]
IC50: 6.31 nM

Structure (SMILES): C[C@]1(C(=O)O)CC[C@H](n2ncc(C(=O)N(CC(=O)c3c(Cl)cc(F)cc3Cl)CC3CC3)c2C(F)(F)F)CC1 [Example 695, trans-4-(4-((cyclopropylmethyl)(2-(2,6-dichloro-4-fluorophenyl)-2-oxoethyl)carbamoyl)-5-(trifluoromethyl)-1H-pyrazol-1-yl)-1-methylcyclohexanecarboxylic acid]
IC50: 10 nM

Structure (SMILES): C[C@@H]1C[C@H](n2ncc(C(=O)N(CC(=O)c3c(Cl)cccc3Cl)CC3CC(C)(C)C3)c2C(F)(F)F)CC[C@@H]1C(=O)O [Example 570, (1S,2R,4R)-4-(4-((2-(2,6-dichlorophenyl)-2-oxoethyl)((3,3-dimethylcyclobutyl)methyl)carbamoyl)-5-(trifluoromethyl)-1H-pyrazol-1-yl)-2-methylcyclohexanecarboxylic acid]
IC50: 18.6 nM

Structure (SMILES): CC1(C)CC[C@@H]1N(CC(=O)c1c(Cl)cncc1Cl)C(=O)c1cnn([C@H]2CC[C@](C)(C(=O)O)CC2)c1C(F)(F)F [Example 617, trans-4-(4-((2-(3,5-dichloro-4-pyridinyl)-2-oxoethyl)((1S)-2,2-dimethylcyclobutyl)carbamoyl)-5-(trifluoromethyl)-1H-pyrazol-1-yl)-1-methylcyclohexanecarboxylic acid]
IC50: 117 nM

Structure (SMILES): C[C@@H]1C[C@H](n2ncc(C(=O)N(CC(=O)c3c(Cl)cncc3Cl)CC(C)(C)C)c2C(F)(F)F)CC[C@@]1(C)C(=O)O [Example 874, (1R,2R,4R)-4-(4-((2-(3,5-dichloro-4-pyridinyl)-2-oxoethyl)(2,2-dimethylpropyl)carbamoyl)-5-(trifluoromethyl)-1H-pyrazol-1-yl)-1,2-dimethylcyclohexanecarboxylic acid]
IC50: 7.76 nM

Structure (SMILES): Cc1cc(Cl)c(C(=O)CN(CC2(F)CCCCC2)C(=O)c2cnn([C@H]3CC[C@](C)(C(=O)O)CC3)c2C(F)(F)F)c(Cl)c1 [Example 665, trans-4-(4-((2-(2,6-dichloro-4-methylphenyl)-2-oxoethyl)((1-fluorocyclohexyl)methyl)carbamoyl)-5-(trifluoromethyl)-1H-pyrazol-1-yl)-1-methylcyclohexanecarboxylic acid]
IC50: 1.38 nM

Structure (SMILES): Cc1ccc(CCN(Cc2ccc(Cl)cc2)C(=O)c2cnn([C@H]3CC[C@H](C(=O)O)CC3)c2C(F)(F)F)c(C)c1 [Example 505, trans-4-(4-((4-chlorobenzyl)(2-(2,4-dimethylphenyl)ethyl)carbamoyl)-5-(trifluoromethyl)-1H-pyrazol-1-yl)cyclohexanecarboxylic acid]
IC50: 5.89 nM

Structure (SMILES): Cc1cc(Cl)c(C(=O)CN(C[C@@H]2CCC(C)(C)O2)C(=O)c2cnn([C@H]3CC[C@](C)(C(=O)O)CC3)c2C(F)(F)F)c(Cl)c1 [Example 783, trans-4-(4-((2-(2,6-dichloro-4-methylphenyl)-2-oxoethyl)(((2S)-5,5-dimethyltetrahydro-2-furanyl)methyl)carbamoyl)-5-(trifluoromethyl)-1H-pyrazol-1-yl)-1-methylcyclohexanecarboxylic acid]
IC50: 3.89 nM

Structure (SMILES): CC1(C)CCC(N(CC(=O)c2c(Cl)cccc2Cl)C(=O)c2cnn([C@H]3CC[C@H](C(=O)O)CC3)c2C(F)(F)F)CC1 [Example 525, trans-4-(4-((2-(2,6-dichlorophenyl)-2-oxoethyl)(4,4-dimethylcyclohexyl)carbamoyl)-5-(trifluoromethyl)-1H-pyrazol-1-yl)cyclohexanecarboxylic acid]
IC50: 5.89 nM

Structure (SMILES): Cc1cc(Cl)c(C(=O)CN(C(=O)c2cnn([C@H]3CC[C@](C)(C(=O)O)CC3)c2C(F)(F)F)[C@H]2C[C@@H](C(C)(C)C)C2)c(Cl)c1 [Example 689, trans-4-(4-((2-(2,6-dichloro-4-methylphenyl)-2-oxoethyl)(cis-3-(2-methyl-2-propanyl)cyclobutyl)carbamoyl)-5-(trifluoromethyl)-1H-pyrazol-1-yl)-1-methylcyclohexanecarboxylic acid]
IC50: 4.17 nM

Structure (SMILES): CC1(C)CC(N(CC(=O)c2c(Cl)cccc2Cl)C(=O)c2cnn([C@H]3CC[C@](C)(C(=O)O)CC3)c2C(F)(F)F)C1 [Example 599, trans-4-(4-((2-(2,6-dichlorophenyl)-2-oxoethyl)(3,3-dimethylcyclobutyl)carbamoyl)-5-(trifluoromethyl)-1H-pyrazol-1-yl)-1-methylcyclohexanecarboxylic acid]
IC50: 13.8 nM

Structure (SMILES): CC1(C)[C@@H]2C[C@H](N(CC(=O)c3c(Cl)ccc(F)c3Cl)C(=O)c3cnn([C@H]4CC[C@](C)(C(=O)O)CC4)c3C(F)(F)F)C[C@@H]21 [Example 763, trans-4-(4-((2-(2,6-dichloro-3-fluorophenyl)-2-oxoethyl)((1R,3r,5S)-6,6-dimethylbicyclo[3.1.0]hex-3-yl)carbamoyl)-5-(trifluoromethyl)-1H-pyrazol-1-yl)-1-methylcyclohexanecarboxylic acid]
IC50: 1.62 nM

Structure (SMILES): C[C@@H]1C[C@@H](n2ncc(C(=O)N(CC(=O)c3c(Cl)cccc3Cl)CC(C)(C)F)c2C(F)(F)F)CC[C@@H]1C(=O)O [Example 831, (1S,2R,4S)-4-(4-((2-(2,6-dichlorophenyl)-2-oxoethyl)(2-fluoro-2-methylpropyl)carbamoyl)-5-(trifluoromethyl)-1H-pyrazol-1-yl)-2-methylcyclohexanecarboxylic acid]
IC50: 2.63 nM

Other lines, results leading:

IC50: 151 nM
Structure (SMILES): CC(C)(C)C[C@H](CO)N(CCc1c(Cl)cccc1Cl)C(=O)c1cnn([C@H]2CC[C@](C)(C(=O)O)CC2)c1C(F)(F)F [Example 605, trans-4-(4-((2-(2,6-dichlorophenyl)ethyl)((2R)-1-hydroxy-4,4-dimethyl-2-pentanyl)carbamoyl)-5-(trifluoromethyl)-1H-pyrazol-1-yl)-1-methylcyclohexanecarboxylic acid]

IC50: 3.72 nM
Structure (SMILES): CC1(CN(CCc2c(Cl)cncc2Cl)C(=O)c2cnn([C@H]3CC[C@](C)(C(=O)O)CC3)c2C(F)(F)F)CCC1 [Example 562, trans-4-(4-((2-(3,5-dichloro-4-pyridinyl)ethyl)((1-methylcyclobutyl)methyl)carbamoyl)-5-(trifluoromethyl)-1H-pyrazol-1-yl)-1-methylcyclohexanecarboxylic acid]

IC50: 11.5 nM
Structure (SMILES): CC(C)(C)CN(CC(=O)c1c(Cl)cncc1Cl)C(=O)c1cnn([C@H]2CC[C@]3(CC2)C[C@@H]3C(=O)O)c1C(F)(F)F [Example 860, (1R,3r,6R)-6-(4-((2-(3,5-dichloro-4-pyridinyl)-2-oxoethyl)(2,2-dimethylpropyl)carbamoyl)-5-(trifluoromethyl)-1H-pyrazol-1-yl)spiro[2.5]octane-1-carboxylic acid]

IC50: 3.98 nM
Structure (SMILES): CC(C)[C@H]1C[C@H](Cc2c(Cl)cncc2Cl)N(C(=O)c2cnn([C@H]3CC[C@](C)(C(=O)O)CC3)c2C(F)(F)F)C1 [Example 747, trans-4-(4-(((2R,4R)-2-((3,5-dichloro-4-pyridinyl)methyl)-4-(2-propanyl)-1-pyrrolidinyl)carbonyl)-5-(trifluoromethyl)-1H-pyrazol-1-yl)-1-methylcyclohexanecarboxylic acid]

IC50: 39.8 nM
Structure (SMILES): CC(C)(C)[C@H]1C[C@@H](N(CC(=O)c2c(Cl)cncc2Cl)C(=O)c2cnn([C@H]3CC[C@](C)(C(=O)O)CC3)c2C(F)(F)F)C1 [Example 699, trans-4-(4-((2-(3,5-dichloro-4-pyridinyl)-2-oxoethyl)(cis-3-(2-methyl-2-propanyl)cyclobutyl)carbamoyl)-5-(trifluoromethyl)-1H-pyrazol-1-yl)-1-methylcyclohexanecarboxylic acid]

IC50: 30.9 nM
Structure (SMILES): CC(C)(C)CN(CC(=O)c1c(Cl)cncc1Cl)C(=O)c1cnn([C@H]2C[C@]3(C[C@H](C(=O)O)C3)C2)c1C(F)(F)F (stereo partly shown) [Example 836, (4R/S)-6-(4-((2-(3,5-dichloro-4-pyridinyl)-2-oxoethyl)(2,2-dimethylpropyl)carbamoyl)-5-(trifluoromethyl)-1H-pyrazol-1-yl)spiro[3.3]heptane-2-carboxylic acid]

IC50: 3.98 nM
Structure (SMILES): C[C@@H]1C[C@@H](n2ncc(C(=O)N(CC(=O)c3c(Cl)cncc3Cl)CC3(C)CCC3)c2C(F)(F)F)CC[C@@H]1C(=O)O [Example 782, (1S,2R,4S)-4-(4-((2-(3,5-dichloro-4-pyridinyl)-2-oxoethyl)((1-methylcyclobutyl)methyl)carbamoyl)-5-(trifluoromethyl)-1H-pyrazol-1-yl)-2-methylcyclohexanecarboxylic acid]
